From US11319289B2, “5-hydroxy pyridine-based compound for use as P2X1 and P2X3 receptor antagonist and pharmaceutical composition comprising same” (GWANGJU INSTITUTE OF SCIENCE AND TECHNOLOGY, priority 2017, dated 2022)
Like-named read-outs stand apart in the source and are kept apart here.

How the values were obtained:
[1] = Plasma protein binding by rapid equilibrium dialysis, human; type: in vitro ADME; conditions: plasma (50% in PBS)
Experimental: Plasma protein binding was measured by rapid equilibrium dialysis (RED). A DMSO stock solution of the compounds was prepared at a concentration of 10 mM and diluted to a concentration of […] with 50% plasma in phosphate buffered saline (PBS, pH 7.4). Plasma samples (100 μL) and PBS (300 μL) were added to the sample chamber and the buffer chamber, respectively, after which the RED device was turn on and the samples were incubated in a shaking incubator at 37° C. for 4 hours. After dialysis, 50 μl aliquots were collected from each side of the chamber. 50 μl of blank plasma was added to the buffer sample, and 50 μl of PBS was also added to the plasma sample. 200 μL of acetonitrile containing an internal standard was added to each sample. The samples were centrifuged at 3200 g for 20 minutes at 4° C., and the supernatants were obtained and analyzed by an LC-MS/MS system. The plasma protein binding rate was calculated as follows: Free form (%)=(Buffer chamber/Plasma chamber)×100 Bound form (%)=100−Free form (%).

[2] = target: T1, mouse P2X1 receptor (mP2X1) (Mus musculus, UniProt P51576); test: Two-electrode voltage clamp assay, recombinant mP2X1 receptor in Xenopus oocytes; type: cell-based; conditions: 10 μM compound, 2 μM ATP, mean±SEM n≥3 (footnote c), read-out: mP2X1 % inhibitory effect at 10 μM
T1 construct: expressed in transfected cells; host or cells: Xenopus oocytes (cRNA microinjection)
T1 sequence (P51576 1-399): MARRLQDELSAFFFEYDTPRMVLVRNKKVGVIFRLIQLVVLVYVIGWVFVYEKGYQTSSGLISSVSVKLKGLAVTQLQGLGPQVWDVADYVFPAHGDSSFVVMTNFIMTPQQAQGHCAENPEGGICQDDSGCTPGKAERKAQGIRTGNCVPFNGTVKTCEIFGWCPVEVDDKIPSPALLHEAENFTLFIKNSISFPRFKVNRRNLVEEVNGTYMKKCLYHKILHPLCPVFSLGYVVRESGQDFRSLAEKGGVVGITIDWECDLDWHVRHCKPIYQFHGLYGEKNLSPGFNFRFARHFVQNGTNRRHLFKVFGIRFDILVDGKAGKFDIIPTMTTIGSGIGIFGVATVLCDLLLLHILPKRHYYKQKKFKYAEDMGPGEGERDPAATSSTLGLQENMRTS
Experimental: (§1) 1-1. Two-Electrode Voltage Clamp Assay for Recombinant mP2X1 and hP2X3 Receptors
(§2) Xenopus oocytes were isolated and incubated with 270 U/mg of collagenase at 23 to 24° C. for 1.5 hours. Defolliculated oocytes were kept in Barth's solution at 18° C. After 1 day, the defolliculated oocytes were each microinjected cytosolically with mP2X1 and human P2X3 receptor cRNA ([…], 1 μg/mL), incubated for 24 hours at 18° C. in Barth's solution. The cRNA-injected oocytes were kept for 12 days at 4° C. ATP-activated membrane currents (Vh=−70 mV) were recorded from the cRNA-injected oocytes using the two-electrode voltage clamp technique (Axoclamp 2B amplifier). Voltage recording ([…] tip resistance) and current-recording microelectrodes (5 MΩ tip resistance) were filled with 3.0 M KCl. Oocytes were placed in an electrophysiological chamber continuously superfused with Ringer's solution (5 mL/min, at 18° C.) containing 110 mM NaCl, 2.5 mM KCl, 5 mM HEPES and 1.8 mM BaCl2, with pH adjusted to 7.5. To induce an evoked current, 2 μM ATP was superfused for 60 to 120 seconds and then washed for 20 min. For data analysis, the ATP-evoked current was normalized at pH 7.5. The compounds were introduced to the fixed oocytes 20 minutes prior to ATP exposure in the electrophysiological chamber. IC50 values (the concentration of the compound required to inhibit the ATP response by 50%) were determined by Hill plots designed using the Chemical Formula: log(I/Imax−1), where I is the current evoked by ATP in the presence of an antagonist. Data are presented as mean±SEM (n≥3) from different batches of oocytes.
(§3) In order to investigate the structure-activity relationship (SAR) of the compounds synthesized in the present invention, the antagonistic activity was evaluated by a two-electrode voltage clamp (TEVC) assay in Xenopus oocytes expressing the recombinant mP2X1 or hP2X3, respectively. The hP2X7R antagonistic activity was assessed using an ethidium ion accumulation assay in human HEK293 cells stably expressing the recombinant human P2X7R.

[3] = target: T2, human P2X3 receptor (hP2X3) (Homo sapiens, UniProt P56373); test: Two-electrode voltage clamp assay, recombinant hP2X3 receptor in Xenopus oocytes; type: cell-based; conditions: for IC50: 2 μM ATP-evoked current, Xenopus oocytes, mean±SEM n≥3 (footnote d)
T2 construct: expressed in transfected cells; host or cells: Xenopus oocytes (cRNA microinjection)
T2 sequence (P56373 1-397): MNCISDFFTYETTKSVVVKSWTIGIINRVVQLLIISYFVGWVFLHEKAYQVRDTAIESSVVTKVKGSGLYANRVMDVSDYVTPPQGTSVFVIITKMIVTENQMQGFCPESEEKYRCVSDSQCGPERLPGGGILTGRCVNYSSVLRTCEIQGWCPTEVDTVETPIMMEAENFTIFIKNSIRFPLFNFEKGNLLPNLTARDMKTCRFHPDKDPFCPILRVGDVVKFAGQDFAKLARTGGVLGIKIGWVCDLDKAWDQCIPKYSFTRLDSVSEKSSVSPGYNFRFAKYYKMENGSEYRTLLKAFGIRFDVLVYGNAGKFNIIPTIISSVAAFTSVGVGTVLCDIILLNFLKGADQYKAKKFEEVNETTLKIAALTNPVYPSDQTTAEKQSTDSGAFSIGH
Experimental: as §1, §2, §3

[4] = pH 7.4, human plasma, read-out: Plasma protein binding rate, Human (converted)

| fraction unbound at 4 h, 5 µM [1, 4] | inhibition at 10 µM [2] [%] | IC50 [3] [nM] | selectivity for hP2X3R to mP2X1R ([3]; hP2X3R versus mP2X1R) | fraction unbound at 4 h, 5 µM ([1]; pH 7.4, species not given, read-out: plasma protein binding) | SMILES |
| --- | --- | --- | --- | --- | --- |
| 0.005 |  |  |  |  | CCCc1nc(Cc2cccc(Oc3ccccc3)c2)c(C)c(C(=O)OC)c1O [Compound 28, Methyl 3-hydroxy-5-methyl-6-(3-phenoxybenzyl)-2-propylisonicotinate] |
|  | 42.8 ± 7.4 | 93 | about 100 fold |  | CCCc1nc(CCc2ccc(OC)cc2)c(C(=O)O)c(C(=O)O)c1O [Compound 13d, 5-Hydroxy-2-(4-methoxyphenethyl)-6-propylpyridine-3,4-dicarboxylic acid] |
| 0.001 ± 6.01e-07 | 23.3 ± 4.8 | 245 |  | < 0.01 | CCCc1nc(Cc2cccc(Oc3ccccc3)c2)c(C)c(C(=O)O)c1O [Compound 29, 3-Hydroxy-5-methyl-6-(3-phenoxybenzyl)-2-propylisonicotinic acid] |
